Measurements reported in patent publication US9271961B2, “Bifunctional AKR1C3 inhibitors/androgen receptor modulators and methods of use thereof” (THE TRUSTEES OF THE UNIVERSITY OF PENNSYLVANIA, priority 2011, dated 2016).
pIC50, pKi: −log10 of the molar value. Blank lines part the entries; values can stand above or below the compound they belong to.

Columns and labels:
[1] = test system: AKR1C enzymes; assay: Inhibition of AKR1C enzymes (FIG. 20); assay type: biochemical
[2] = target: T1, AKR1C3 (Homo sapiens (Human), UniProt P42330); assay: Conversion of Δ4-AD to testosterone in LNCaP cells stably transfected with AKR1C3; assay type: cell-based; conditions: for conversion of Δ4-AD to testosterone: LNCaP-AKR1C3 transfected cells, 10 μM; for amount of testosterone formed from Δ4-AD: LNCaP-AKR1C3 cells
Procedure: LNCaP cells were stably transfected with AKR1 C3 using the retroviral construct pLNCX-AKR1C3, and its expression was documented using both RT-PCR and immunoblot analysis using an isoform specific monoclonal AKR1C3 antibody (Byrns et al., 2012, J. Steroid Biochem. Mol. Biol. 130:7-15). Metabolism studies of 0.1 μM and 5.0 μM [^14C]-Δ^4-AD were conducted in LNCaP and LNCaP-AKR1C3 cells with the anticipation that the transfected cells would form more testosterone. The bulk of the metabolites formed in LNCaP cells were found in the aqueous phase. When this phase was treated with β-glucuronidase (200 units/mL at pH 6.6) and re-extracted, androsterone was the predominate metabolite released into the organic soluble fraction providing evidence for the formation of androsterone-3α-glucuronide. When LNCaP-AKR1C3 transfected cells were used, the bulk of the metabolites were again found in the aqueous phase. However, β-glucuronidase treatment of the aqueous phase yielded both androsterone and testosterone, providing evidence for testosterone formation by these cells.
Tertiary screens of the compounds of interest include: (a) inhibition of the conversion of Δ^4-AD to testosterone in LNCaP (AR dependent prostate cancer) cells stably transfected with AKR1C3; (b) inhibition of Δ^4-AD mediated cell proliferation in LNCaP cells stably transfected with AKR1C3; and (c) inhibition of growth of castrate resistant prostate cancer cells in culture.

[3] = target: T1, AKR1C3; assay: Inhibition of NADP+ dependent oxidation of S-tetralol by recombinant AKR1C3; assay type: biochemical; conditions: for pIC50: S-tetralol oxidation, substrate at KM
Procedure: The inhibitory potency of the compounds disclosed herein was determined using purified homogenous recombinant enzymes. Full concentration response studies were conducted and IC50 values calculated using Grafit 5.0 software. The compounds were evaluated for their effects on enzyme catalyzed oxidation of S-tetralol using a 96-well plate format.
The primary screen was also modified to report the following ratio: AKR1C2 IC50 value:AKR1C3 IC50 value. […] When bifunctional AKR1C3 and SARMs are sought the androgen receptor reporter gene assay is moved up in sequence.
Based on this assumption, the screening strategy adopted was to determine the inhibitory potency of each compound against AKR1C2 and AKR1C3 and use the ratio of IC50 value for AKR1C2:IC50 value for AKR1C3 as an index of compound selectivity for AKR1C3. The inhibitory potency of compounds on AKR1C2 and AKR1C3 was determined by measuring the inhibition of the NADP^+ dependent oxidation of S-tetralol.

[4] = target: retinal reductase (AKR1B10) (Homo sapiens (Human), UniProt O60218); assay: Secondary screen against retinal reductase; assay type: biochemical
[5] = target: T1, AKR1C3; assay: Inhibition of AKR1C3 catalyzed reduction of Δ4-androstene-3,17-dione to testosterone; assay type: biochemical
From the text: Compounds may be evaluated as selective reversible inhibitors of AKR1C3 by screening them against homogeneous recombinant AKR1C1-AKR1C4 expressed in E. coli. […] IC50 values are generated using steroid concentrations at KM.
The primary screen was also modified to report the following ratio: AKR1C2 IC50 value:AKR1C3 IC50 value. A high ratio reflects a high selectivity for AKR1C3 and data are used to generate heat-maps, FIG. 14. This method is preferred to measuring percent inhibition using a single concentration of 1.0 μM inhibitor, since this single point method is prone to identifying false positives. […] The leads may then be moved into secondary in vitro screens (complete screen against all human AKR isoforms; COX-1 and COX-2; and other relevant human 17β-HSD isoforms); tertiary screens using cell-based assays (inhibition of AKR1C3 mediated testosterone production and AKR1C3 mediated cell proliferation in prostate cancer cell lines; and modulation of the androgen receptor in reporter gene assays); and quaternary screens in xenograft models of CRPC. When bifunctional AKR1C3 and SARMs are sought the androgen receptor reporter gene assay is moved up in sequence.

[6] = target: aldose reductase (AKR1B1) (Homo sapiens (Human), UniProt P15121); assay: Secondary screen against aldose reductase; assay type: biochemical
[7] = target: COX-1 (Homo sapiens (Human), UniProt P23219); assay: Screen against COX-1; assay type: biochemical
[8] = target: COX-2 (Homo sapiens (Human), UniProt P35354); assay: Screen against COX-2; assay type: biochemical
[9] = test system: mutated AR and PSA expression; assay: Mutated AR levels and PSA expression in LNCaP-AKR1C3 cells; assay type: cell-based; conditions: presence of either 1.0 nM 5α-DHT or 100 nM Δ4-AD
[10] = test system: prostatic specific antigen (PSA) gene expression; assay: AR regulated PSA gene expression in LNCaP cells; assay type: cell-based; conditions: 10-30 μM, presence and absence of 5α-DHT (0.1-1.0 nM)
[11] = target: T2, AR (Homo sapiens (Human), UniProt P10275); assay: AR stability / degradation in Hela cells; assay type: cell-based; conditions: 10-40 μM, presence and absence of 0.1 nM 5α-DHT
[12] = target: T2, AR; assay: AR nuclear translocation from the cytosol in HeLa 13 cells; conditions: presence of DHT
From the text: AR LE and AR SE=long and short exposure to detect cytoplasmic AR. β-tubulin was used as a loading control.

Compound: 4-chloro-N-phenylanthranilate [reference compound]
inhibition of AKR1C enzymes [1]: inhibits

conversion of Δ4-AD to testosterone [2]: completely blocked
Compound: O=C(O)c1cccc(Nc2ccc(Cl)cc2)c1 [Compound 8, 3-[N-(4-Chlorophenyl)amino]benzoic acid]

slope factor of the inhibition dose-response curve ([3]; AKR1C3): approximately two
pKi ([3]; S-tetralol as substrate): 7.24
pattern of inhibition of AKR1C3 ([3]; S-tetralol as substrate, E.NADP+.S-tetralol complex): competitive inhibition
pIC50 [3]: 7.12
inhibition of retinal reductase (AKR1B10) [4]: failed to inhibit
pattern of inhibition of AKR1C3 ([5]; Δ4-AD as substrate, E.NADPH.Δ4-AD complex): competitive inhibition
pKi ([5]; Δ4-androstene-3,17-dione as substrate): 5.61
inhibition of aldose reductase (AKR1B1) [6]: failed to inhibit
inhibition of COX-1 [7]: failed to inhibit
inhibition of COX-2 [8]: failed to inhibit
amount of testosterone formed from Δ4-AD [2]: significant decline
conversion of Δ4-AD to testosterone [2]: completely blocked
degradation of the AR [11]: dose-dependent degradation
Compound: O=C(O)c1cccc(Nc2ccc([N+](=O)[O-])c3ccccc23)c1 [Compound 13, 3-((4-nitronaphthalen-1-yl)amino)benzoic acid]
expression of the mutated AR and PSA [9]: decrease
expression of PSA [10]: block the expression of PSA
cytoplasmic AR (prevention of nuclear localization of the AR) [12]: dose dependent increase in cytoplasmic AR

pIC50 [3]: 6.03
Compound: O=C(O)c1cccc(Nc2ccccc2)c1 [Compound 3, 3-Phenylamino benzoic acid]

amount of testosterone formed from Δ4-AD [2]: significant decline
Compound: O=C(O)c1cccc(Nc2ccc(C(F)(F)F)cc2)c1 [Compound 7, 3-[N-(4-Trifluoromethylphenyl)amino]benzoic acid]

Compound: O=C(O)c1ccccc1Nc1cccc(C(F)(F)F)c1 [Compound 1, Flufenamic Acid, reference compound]
pIC50 [3]: 7.30

AKR1C3 inhibitory potency (in words) [3]: low nanomolar range
pIC50 [3]: 7.44
Compound: O=C(O)c1cccc(Nc2ccc([N+](=O)[O-])cc2)c1 [Compound 5, 3-[N-(4-nitrophenyl)amino]benzoic acid]
